This note sets out measurements from patent US20250346593A1, “IMIDAZO(1,2-1)PYRIDINE DERIVATIVES AS RIPK2 INHIBITORS” (Interline Therapeutics, Inc., priority 2022, published 2025).

The subject of assay [1] is NF-κB pathway (SEAP) in THP1-Dual cells. Put plainly: THP-1 Dual cell SEAP assay (L18-MDP stimulated). The assay is classed as cell-based. As to conditions: Homo sapiens, THP1-Dual, read-out: NFkB THP1 IC50.
The target in assay [2] is GST-RIPK2 fusion protein (human RIPK2 amino acids 1-310) (Homo sapiens (Human), UniProt O43353). Nature of the assay: RIPK2 binding competition assay (TR-FRET, Tracer 199).
Sequence of GST-RIPK2 fusion protein (human RIPK2 amino acids 1-310) (O43353 1-310): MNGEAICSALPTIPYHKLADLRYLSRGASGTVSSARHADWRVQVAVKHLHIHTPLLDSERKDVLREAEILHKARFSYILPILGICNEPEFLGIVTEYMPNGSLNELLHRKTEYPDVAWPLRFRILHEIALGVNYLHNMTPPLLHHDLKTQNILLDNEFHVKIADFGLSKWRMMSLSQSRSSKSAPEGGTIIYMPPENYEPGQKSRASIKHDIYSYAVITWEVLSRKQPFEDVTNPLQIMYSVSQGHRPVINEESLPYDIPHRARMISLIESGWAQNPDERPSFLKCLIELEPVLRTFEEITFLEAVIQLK
Setting [3] is: read-out: RIPK2 IC50, RIPK2 binding competition assay.

Read-outs that look alike come from different tables or passages of the source.

`CCCS(=O)(=O)Nc1cc(OC(F)F)cc(-c2cnc3cc(OC)c(S(=O)(=O)C(C)(C)C)cn23)c1` [Example 295, N-(3-(6-(tert-butylsulfonyl)-7-methoxyimidazo[1,2-a]pyridin-3-yl)-5-(difluoromethoxy)phenyl) propane-1-sulfonamide]: the half-inhibitory concentration (IC50) lay within 50 to 250 nM in assay [1] and 1 to 2.5 nM in assay [2].
The corresponding values for `COc1cc2ncc(-c3cc(F)nc(NCCC(C)O)c3)n2cc1S(=O)(=O)C(C)(C)C` (single isomer, unassigned) [Example 169, 4-((4-(6-(tert-butylsulfonyl)-7-methoxyimidazo[1,2-a]pyridin-3-yl)-6-fluoropyridin-2-yl)amino)butan-2-ol] are less than 50 nM and less than 1 nM.
On the same counts, the results for `COc1cc2ncc(-c3cc(F)nc(NC4CCCC[C@H]4O)c3)n2cc1S(=O)(=O)C(C)(C)C` (mixture of isomers) [Example 225, (1R,2R & 1S,2S)-2-((4-(6-(tert-butylsulfonyl)-7-methoxyimidazo[1,2-a]pyridin-3-yl)-6-fluoropyridin-2-yl)amino)cyclohexan-1-ol] are 250 to 1000 nM and 2.5 to 20 nM.
As for `COc1cc(N)cc(-c2cnn3ccc(S(=O)(=O)C(C)(C)C)cc23)c1` [Example 24, 3-(5-(tert-butylsulfonyl)pyrazolo [1,5-a]pyridin-3-yl)-5-methoxyaniline], the IC50 in assay [1] is greater than 1000 nM; in assay [2] (setting [3]), greater than 20 nM.
Consider `CC(C)(C)S(=O)(=O)c1ccc2ncc(-c3cc(N)nc(F)c3)n2c1` [Example 330, 4-(6-(tert-butylsulfonyl)imidazo[1,2-a]pyridin-3-yl)-6-fluoropyridin-2-amine], for which the IC50 in assay [1] is 250 to 1000 nM; in assay [2], 2.5 to 20 nM.
As for `COc1cc2ncc(-c3ccnc(F)c3)n2cc1S(=O)(=O)C(C)(C)C` [Example 5, 6-(tert-butylsulfonyl)-3-(2-fluoropyridin-4-yl)-7-methoxyimidazo[1,2-a]pyridine], in assay [2], the IC50 lay in the range of 2.5 to 20 nM.
`COc1cc2ncc(-c3cc(F)nc(N4CCC(O)CC4)c3)n2cc1S(=O)(=O)C(C)(C)C` [Example 207, 1-(4-(6-(tert-butylsulfonyl)-7-methoxyimidazo[1,2-a]pyridin-3-yl)-6-fluoropyridin-2-yl)piperidin-4-ol]: the figures for the 50% inhibitory concentration (IC50) in assay [1] and in assay [2] were less than 50 nM and 1 to 2.5 nM, respectively.
In the case of `COc1cc2ncc(-c3cc(F)nc(N4CC5(C4)CC(O)(C(F)(F)F)C5)c3)n2cc1S(=O)(=O)C(C)(C)C` [Example 217, 2-{6-fluoro-4-[7-methoxy-6-(2-methylpropane-2-sulfonyl)imidazo[1,2-a]pyridin-3-yl]pyridin-2-yl}-6-(trifluoromethyl)-2-azaspiro[3.3]heptan-6-ol], the concentration for half-maximal inhibition (IC50) in assay [2] is 2.5 to 20 nM.
As to `COc1cc2ncc(-c3cc(F)nc(NCCC4(O)COC4)c3)n2cc1S(=O)(=O)C(C)(C)C` [Example 213, 3-(2-((4-(6-(tert-butylsulfonyl)-7-methoxyimidazo[1,2-a]pyridin-3-yl)-6-fluoropyridin-2-yl)amino)ethyl)oxetan-3-ol], the figures for the IC50 in assay [1] and in assay [2] were 250 to 1000 nM and 2.5 to 20 nM, respectively.
On the same counts, the results for `CC(C)(C)S(=O)(=O)c1ccn2ncc(-c3cc(F)nc(NCCCO)c3)c2c1` [Example 296, 3-((4-(5-(tert-butylsulfonyl)pyrazolo [1,5-a]pyridin-3-yl)-6-fluoropyridin-2-yl)amino)propan-1-ol] are less than 50 nM and 1 to 2.5 nM.
`CC(C)(C)S(=O)(=O)c1ccn2ncc(-c3ccc(NCCCO)nc3F)c2c1` [Example 297, 3-((5-(5-(tert-butylsulfonyl)pyrazolo[1,5-a]pyridin-3-yl)-6-fluoropyridin-2-yl)amino)propan-1-ol]: the IC50 in assay [2] (setting [3]) is greater than 20 nM.
Turning to `COc1cc2ncc(-c3cc(F)nc(NCCCNC(C)=O)c3)n2cc1S(=O)(=O)C(C)(C)C` [Example 318, N-[3-({6-fluoro-4-[7-methoxy-6-(2-methylpropane-2-sulfonyl)imidazo [1,2-a]pyridin-3-yl]pyridin-2-yl}amino)propyl] acetamide], in assay [2], the IC50 lay within 1 to 2.5 nM.
In assay [2], `COc1ccc(-c2cnc3cc(OC)c(S(=O)(=O)C(C)(C)C)cn23)cc1F` [Example 63, 6-(tert-butylsulfonyl)-3-(3-fluoro-4-methoxyphenyl)-7-methoxyimidazo[1,2-a]pyridine] came in with an IC50 of 2.5 to 20 nM.
On to `COc1cc2ncc(-c3ccnc(N)c3)n2cc1S(=O)(=O)C(C)(C)C` [Example 11, 4-[7-methoxy-6-(2-methylpropane-2-sulfonyl)imidazo[1,2-a]pyridin-3-yl]pyridin-2-amine], for which the IC50 in assay [1] was in the range of 250 to 1000 nM.
In assay [2], `COc1cc2ncc(-c3cc(F)nc(N4CC5(CC(O)C5)C4)c3)n2cc1S(=O)(=O)C(C)(C)C` [Example 218, 2-{6-fluoro-4-[7-methoxy-6-(2-methylpropane-2-sulfonyl)imidazo[1,2-a]pyridin-3-yl]pyridin-2-yl}-2-azaspiro[3.3]heptan-6-o1] registered a half-inhibitory concentration (IC50) of 2.5 to 20 nM.
Take `COc1cc2ncc(-c3cc(Cl)ncc3C)n2cc1S(=O)(=O)C(C)(C)C` [Example 159, 6-(tert-Butylsulfonyl)-3-(2-chloro-5-methylpyridin-4-yl)-7-methoxyimidazo[1,2-a]pyridine]: the IC50 in assay [2] (setting [3]) is greater than 20 nM.
The same measure, in the same setting: in the case of `COc1cc2ncc(-c3cc(F)nc(NC4CC4)c3)n2cc1S(=O)(=O)C(C)(C)C` [Example 177, 4-(6-(tert-butylsulfonyl)-7-methoxyimidazo[1,2-a]pyridin-3-yl)-N-cyclopropyl-6-fluoropyridin-2-amine] it was less than 1 nM.
In the case of `COc1cc2ncc(-c3cc(F)nc(NC4CCC(O)CC4)c3)n2cc1S(=O)(=O)C(C)(C)C` (stereo not shown) [Example 204, (1r,4r)-4-((4-(6-(tert-butylsulfonyl)-7-methoxyimidazo[1,2-a]pyridin-3-yl)-6-fluoropyridin-2-yl)amino)cyclohexan-1-ol], the IC50 in assay [1] fell in the range of 50 to 250 nM.
Compound `CC(C)(C)S(=O)(=O)c1ccc2ncc(-c3cc(F)nc(NCCC4(O)CC4)c3)n2c1` [Example 172, 1-(2-((4-(6-(tert-butylsulfonyl)imidazo [1,2-a]pyridin-3-yl)-6-fluoropyridin-2-yl)amino)ethyl)cyclo-propan-1-ol] showed a half-inhibitory concentration (IC50) in assay [2] of 1 to 2.5 nM.
In assay [2], `COc1cc2ncc(-c3cc(F)nc(N[C@H]4C[C@@H](OC)C4)c3)n2cc1S(=O)(=O)C(C)(C)C` [Example 220, 6-fluoro-4-[7-methoxy-6-(2-methylpropane-2-sulfonyl)imidazo[1,2-a]pyridin-3-yl]-N-[cis-3-methoxycyclobutyl] pyridin-2-amine] gave an IC50 of 1 to 2.5 nM.
In the case of `COc1ccc(-c2cnc3cc(OC)c(S(=O)(=O)C4CC4)cn23)cc1N` [Example 33, 5-(6-(cyclopropylsulfonyl)-7-methoxyimidazo[1,2-a]pyridin-3-yl)-2-methoxyaniline], in assay [2] (setting [3]), the half-inhibitory concentration (IC50) is greater than 20 nM.
The same measure, in the same setting: to `COc1cc2ncc(-c3cc(F)nc(NCCC4(O)CCC4)c3)n2cc1S(=O)(=O)C(C)(C)C` [Example 187, 1-(2-((4-(6-(tert-butylsulfonyl)-7-methoxyimidazo[1,2-a]pyridin-3-yl)-6-fluoropyridin-2-yl)amino)ethyl)cyclo-butan-1-ol] belongs less than 1 nM.
In turn, `CC(C)(C)S(=O)(=O)c1ccc2ncc(-c3cc(F)nc(NCCCO)c3)n2c1` [Example 173, 3-((4-(6-(tert-butylsulfonyl)imidazo [1,2-a]pyridin-3-yl)-6-fluoropyridin-2-yl)amino)propan-1-ol] had a 50% inhibitory concentration (IC50) in assay [2] of 2.5 to 20 nM.
The same measure, in the same setting: to `COc1cc2ncc(-c3cc(C)nc(F)c3)n2cc1S(=O)(=O)C(C)(C)C` [Example 12, 2-fluoro-4-[7-methoxy-6-(2-methylpropane-2-sulfonyl)imidazo[1,2-a]pyridin-3-yl]-6-methylpyridine] belongs 2.5 to 20 nM.
The same measure, in the same setting: in the case of `COc1cc2ncc(-c3cc(F)nc(N[C@H]4C[C@@H](O)C4)c3)n2cc1S(=O)(=O)C(C)(C)C` [Example 191, (1s,3s)-3-((4-(6-(tert-butylsulfonyl)-7-methoxyimidazo[1,2-a]pyridin-3-yl)-6-fluoropyridin-2-yl)amino)cyclobutan-1-ol] it was less than 1 nM; in that of `COc1cc2ncc(-c3cc(F)nc(N[C@H]4CC[C@H](O)CC4)c3)n2cc1S(=O)(=O)C(C)(C)C` [Example 204, (1r,4r)-4-((4-(6-(tert-butylsulfonyl)-7-methoxyimidazo[1,2-a]pyridin-3-yl)-6-fluoropyridin-2-yl)amino)cyclohexan-1-ol], 1 to 2.5 nM.
`COc1cc2ncc(-c3cc(F)nc(N[C@H]4C[C@H](OC)C4)c3)n2cc1S(=O)(=O)C(C)(C)C` [Example 219, 6-fluoro-4-[7-methoxy-6-(2-methylpropane-2-sulfonyl)imidazo[1,2-a]pyridin-3-yl]-N-[(trans)-3-methoxycyclobutyl] pyridin-2-amine] returned a concentration for half-maximal inhibition (IC50) in assay [2] of 1 to 2.5 nM.
The same measure, in the same setting: in the case of `COc1cc2ncc(-c3cc(F)nc(NCCC(C)O)c3)n2cc1S(=O)(=O)C(C)(C)C` (racemic) [Example 190, rac-4-((4-(6-(tert-butylsulfonyl)-7-methoxyimidazo[1,2-a]pyridin-3-yl)-6-fluoropyridin-2-yl)amino)butan-2-ol] it was less than 1 nM; in that of `COc1cc2ncc(-c3ccc(N)c(C#N)c3)n2cc1S(=O)(=O)C(C)(C)C` [Example 70, 2-amino-5-(6-(tert-butylsulfonyl)-7-methoxyimidazo[1,2-a]pyridin-3-yl)benzonitrile], 2.5 to 20 nM.
For the compound `COc1cc2ncc(-c3cc(F)nc(NC4CC(O)C4)c3)n2cc1S(=O)(=O)C(C)(C)C` (stereo not shown) [Example 191, (1s,3s)-3-((4-(6-(tert-butylsulfonyl)-7-methoxyimidazo[1,2-a]pyridin-3-yl)-6-fluoropyridin-2-yl)amino)cyclobutan-1-ol], the 50% inhibitory concentration (IC50) in assay [1] was less than 50 nM.
With `COc1cc2ncc(-c3ccc(O)cc3)n2cc1S(=O)(=O)C(C)(C)C` [Example 149, 4-(6-(tert-butylsulfonyl)-7-methoxyimidazo[1,2-a]pyridin-3-yl)phenol], in assay [1], the concentration for half-maximal inhibition (IC50) lay in the range of 250 to 1000 nM.
Turning to `COc1cc2ncc(-c3cc(F)nc(NCCC(C)(C)O)c3)n2cc1S(=O)(=O)C(C)(C)C` [Example 189, 4-((4-(6-(tert-butylsulfonyl)-7-methoxyimidazo[1,2-a]pyridin-3-yl)-6-fluoropyridin-2-yl)amino)-2-methylbutan-2-ol], the IC50 in assay [2] (setting [3]) was less than 1 nM.
